Assay results published in patent US20260116922A1 (UNIVERSITAET WIEN, priority 2021, published 2026).
*1 amine or outer side, *2 acyl side, *3 side chain or, on linkers, in order; H or OH if unused. Where a SMILES comes first, the peptide text is derived from it. Bridges are numbered along the chain shown (N, C = ends). [ ]: non-standard residue; d: D form. The star is where a group is joined. N(4-F-Bzl)Gly = O=C(O)CNCc1ccc(F)cc1; αMeY = C[C@](N)(Cc1ccc(O)cc1)C(=O)O; Gly(cPent) = N[C@H](C(=O)O)C1CCCC1; αMeL = CC(C)C[C@](C)(N)C(=O)O; αMeV = CC(C)[C@](C)(N)C(=O)O; Thz = O=C(O)[C@@H]1CSCN1; X1 = O=C(CCC[*:2])[*:1]; Dap = NC[C@H](N)C(=O)O; Piv = CC(C)(C)C(=O)*

molecular target: T1, Human OTR (Homo sapiens, UniProt P30559); test: IP-1 accumulation in HEK293 cells stably expressing hOTR-GFP; type: cell-based; conditions: 1 h stimulation at 37° C., normalized to maximum OT response
T1 construct: expressed in transfected cells; host or cells: HEK293 (stably transfected, G418 selection)
T1 sequence (P30559 1-389): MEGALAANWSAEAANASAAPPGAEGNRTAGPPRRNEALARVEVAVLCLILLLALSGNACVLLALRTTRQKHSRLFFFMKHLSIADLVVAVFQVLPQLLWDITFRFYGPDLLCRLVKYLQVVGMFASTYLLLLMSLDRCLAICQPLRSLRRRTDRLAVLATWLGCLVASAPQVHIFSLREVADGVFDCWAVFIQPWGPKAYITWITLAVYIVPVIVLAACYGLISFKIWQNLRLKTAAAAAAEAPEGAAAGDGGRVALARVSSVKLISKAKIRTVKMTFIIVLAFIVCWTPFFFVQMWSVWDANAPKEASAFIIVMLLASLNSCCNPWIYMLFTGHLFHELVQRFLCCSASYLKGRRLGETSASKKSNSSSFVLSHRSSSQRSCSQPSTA
Description: Cell culture for functional assays.
Measurement of inositol phosphate one (IP-1) accumulation. HEK293 cells were cultured in DMEM supplemented with 10% FBS and penicillin/streptomycin (100 U mL^−1) at 37° C. and 5% CO2. Cells were transferred into white opaque 384-well plates (CellStar®, Greiner, Austria) at ˜10,000 cells per well 48 h prior to measurement. Quantitative measurements of receptor-mediated IP-1 were performed by competitive immunoassay utilizing the IP-One assay kit [9]. HEK293 cells were assayed as per the manufacturer's protocol. Briefly, at the time of analysis, the culture media was removed and replaced with IP-1 stimulation buffer. Cells were allowed to equilibrate in the stimulation buffer at 37° C. for 15 min, followed by addition of peptide ligands (to final concentrations of 1 μM-10 μM) and subsequent stimulation for 1 h at 37° C. The stimulation was terminated by lysis and the simultaneous addition of homogenous time-resolved fluorescence resonance energy transfer reagents. The lysates were incubated for 1 h at 25° C. Fluorescence emission measurements at 620 nm and 665 nm were performed using a Spark Multimode plate reader (Tecan, Switzerland) at an excitation wavelength of 340 nm. Results were analyzed as a ratio of fluorescence intensities of 665 nm to 620 nm. […]

Question: Which EC50 does the source give for `CC[C@H](C)[C@@H]1NC(=O)[C@H](Cc2ccc(OC)cc2)NC(=O)CCCSC[C@@H](C(=O)N(CC(=O)N[C@@H](CNC(C)=O)C(=O)NCC(N)=O)Cc2ccc(F)cc2)NC(=O)[C@H](CC(N)=O)NC(=O)[C@H](CCC(N)=O)NC1=O` [Compound 8] (Y(Me)IQNC[N(4-F-Bzl)Gly][Dap](Ac)G-NH2; linker N-5 via X1) here?
Answer: > 500 nM

tested on: not listed separately; test: in vitro; conditions: simulated gi fluid, pH 6.8
Description: (§1) Simulated intestinal fluid (SIF). […] The solution was centrifuged, and syringe filtered before use.
(§2) Stability assay procedure. Stock solutions (1 mM) of test peptides were prepared in ddH2O. […] The peptide stock solution (30 μL) was added to the fluid, the mixture was vortexed and incubated at 37° C. […] All samples were centrifuged (5 min, 16,000×g) and stored at 4° C. before analysis.
(§3) RP-HPLC-UV(-MS) analysis of stability samples. […] 30 μL sample were injected on a Kromasil Classic C1S HPLC column (2.1×150 mm, 100 Å, 5 μm) equipped with a guard column (C18, 100 Å, 5 μm, 2.1 mm). […] Solvent A: 0.1% TFA in ddH2O. Solvent B: 0.08% TFA in ACN.
(§4) Data analysis. […] Peak areas (mAU×min) at individual time points were normalized to the mean value of time point zero (y(t0)=100%). To calculate compound half-lives (t1/2), a one-phase exponential decay function was fitted to normalized data points via a nonlinear regression in GraphPad Prism (Version 9) (GraphPad Software Inc., La Jolla, California, USA). The following constraints were applied: (i) y(t0) constant equal to 100, (ii) plateau constant equal to 0.

Question: With `CC[C@H](C)[C@@H]1NC(=O)[C@H](Cc2ccc(O)cc2)NC(=O)[C@@H](N)CSSC[C@@H](C(=O)N2CCC[C@H]2C(=O)N[C@@H](CC(C)C)C(=O)NCC(N)=O)NC(=O)[C@H](CC(N)=O)NC(=O)[C@H](CCC(N)=O)NC1=O` [OT, oxytocin] as the molecule, how does the half-life at 50 µM read?
Answer: 8 ± 1 min

tested on: not listed separately; test: in vitro; conditions: simulated gi fluid

Question: With `CC[C@H](C)[C@@H]1NC(=O)[C@H](Cc2ccc(O)cc2)NC(=O)[C@@H](N)CSSC[C@@H](C(=O)N2CCC[C@H]2C(=O)N[C@@H](CC(C)C)C(=O)NCC(N)=O)NC(=O)[C@H](CC(N)=O)NC(=O)[C@H](CCC(N)=O)NC1=O` [OT, oxytocin] as the molecule, how does the half-life read?
Answer: > 1440 min

tested on: not listed separately; test: Stability in simulated intestinal fluid (SIF); conditions: relative stability compared with SIF stability of oxytocin (8±1 min); SIF pH 6.8, pancreatin, 37° C.
Description: as §1, §2, §3, §4

Question: With `CC[C@H](C)[C@@H]1NC(=O)[C@H](Cc2ccc(O)cc2)NC(=O)[C@@H](N)CSSC[C@@H](C(=O)N2CCC[C@H]2C(=O)N[C@@H](CCCCNC(C)=O)C(=O)NCC(N)=O)NC(=O)[C@H](CC(N)=O)NC(=O)[C@H](CCC(N)=O)NC1=O` [Compound 1] as the molecule, how does the “SIF stability [fold OT]” value read?
Answer: 10-100 fold OT

Question: With `CC[C@H](C)[C@@H]1NC(=O)[C@H](Cc2ccc(O)cc2)NC(=O)[C@@H](N)CSSC[C@@H](C(=O)N2CCC[C@H]2C(=O)N[C@@H](CNC(C)=O)C(=O)NCC(N)=O)NC(=O)[C@H](CC(N)=O)NC(=O)[C@H](CCC(N)=O)NC1=O` [Compound 2] as the molecule, how does the “SIF stability [fold OT]” value read?
Answer: 10-100 fold OT

Question: With `CC[C@H](C)[C@@H]1NC(=O)[C@H](Cc2ccc(O)cc2)NC(=O)[C@@H](N)CSSC[C@@H](C(=O)N2CCC[C@H]2C(=O)N[C@@](C)(CC(C)C)C(=O)NCC(N)=O)NC(=O)[C@H](CC(N)=O)NC(=O)[C@H](CCC(N)=O)NC1=O` [Compound 3] as the molecule, how does the “SIF stability [fold OT]” value read?
Answer: 10-100 fold OT

Question: With `CC[C@H](C)[C@@H]1NC(=O)[C@H](Cc2ccc(O)cc2)NC(=O)[C@@H](N)CSSC[C@@H](C(=O)N2CCC[C@H]2C(=O)N[C@H](CC(=O)NCC(N)=O)CC(C)C)NC(=O)[C@H](CC(N)=O)NC(=O)[C@H](CCC(N)=O)NC1=O` [Compound 4] as the molecule, how does the “SIF stability [fold OT]” value read?
Answer: 10-100 fold OT

Question: For `CC[C@H](C)[C@@H]1NC(=O)[C@H](Cc2ccc(OC)cc2)NC(=O)CCCSC[C@@H](C(=O)N2CCC[C@H]2C(=O)N[C@@H](CCCCNC(C)=O)C(=O)NCC(N)=O)NC(=O)[C@H](CC(N)=O)NC(=O)[C@H](CCC(N)=O)NC1=O` [Compound 5] (Y(Me)IQNCPK(Ac)G-NH2; linker N-5 via X1), which “SIF stability [fold OT]” value is on record?
Answer: >100 fold OT

Question: With `CC[C@H](C)[C@@H]1NC(=O)[C@H](Cc2ccc(OC)cc2)NC(=O)CCCSC[C@@H](C(=O)N2CCC[C@H]2C(=O)N[C@@H](CNC(C)=O)C(=O)NCC(N)=O)NC(=O)[C@H](CC(N)=O)NC(=O)[C@H](CCC(N)=O)NC1=O` [Compound 6] (Y(Me)IQNCP[Dap](Ac)G-NH2; linker N-5 via X1) as the molecule, how does the “SIF stability [fold OT]” value read?
Answer: >100 fold OT

Question: For `CC[C@H](C)[C@@H]1NC(=O)[C@H](Cc2ccc(OC)cc2)NC(=O)CCCSC[C@@H](C(=O)N2CCC[C@H]2C(=O)N[C@@](C)(CC(C)C)C(=O)NCC(N)=O)NC(=O)[C@H](CC(N)=O)NC(=O)[C@H](CCC(N)=O)NC1=O` [Compound 7] (Y(Me)IQNCP[αMeL]G-NH2; linker N-5 via X1), which “SIF stability [fold OT]” value is on record?
Answer: >100 fold OT

Question: For `CC[C@H](C)[C@@H]1NC(=O)[C@H](Cc2ccc(OC)cc2)NC(=O)CCCSC[C@@H](C(=O)N(CC(=O)N[C@@H](CNC(C)=O)C(=O)NCC(N)=O)Cc2ccc(F)cc2)NC(=O)[C@H](CC(N)=O)NC(=O)[C@H](CCC(N)=O)NC1=O` [Compound 8] (Y(Me)IQNC[N(4-F-Bzl)Gly][Dap](Ac)G-NH2; linker N-5 via X1), which “SIF stability [fold OT]” value is on record?
Answer: 10-100 fold OT

Question: Which “SIF stability [fold OT]” value does the source give for `CC[C@H](C)[C@@H]1NC(=O)[C@](C)(Cc2ccc(O)cc2)NC(=O)CCCSC[C@@H](C(=O)N2CCC[C@H]2C(=O)N[C@@H](CNC(C)=O)C(=O)NCC(N)=O)NC(=O)[C@H](CC(N)=O)NC(=O)[C@H](CCC(N)=O)NC1=O` [Compound 9] ([αMeY]IQNCP[Dap](Ac)G-NH2; linker N-5 via X1) here?
Answer: >100 fold OT

Question: Which “SIF stability [fold OT]” value does the source give for `CC[C@H](C)[C@@H]1NC(=O)[C@](C)(Cc2ccccc2)NC(=O)CCCSC[C@@H](C(=O)N2CCC[C@H]2C(=O)N[C@@H](CNC(C)=O)C(=O)NCC(N)=O)NC(=O)[C@H](CC(N)=O)NC(=O)[C@H](CCC(N)=O)NC1=O` [Compound 10] here?
Answer: >100 fold OT

Question: For `CC[C@H](C)[C@@H]1NC(=O)[C@H](Cc2ccc(C)cc2)NC(=O)CCCSC[C@@H](C(=O)N2CCC[C@H]2C(=O)N[C@@H](CNC(C)=O)C(=O)NCC(N)=O)NC(=O)[C@H](CC(N)=O)NC(=O)[C@H](CCC(N)=O)NC1=O` [Compound 11], which “SIF stability [fold OT]” value is on record?
Answer: 10-100 fold OT

Question: For `CC[C@H](C)[C@@H]1NC(=O)[C@H](Cc2ccc(C(F)(F)F)cc2)NC(=O)CCCSC[C@@H](C(=O)N2CCC[C@H]2C(=O)N[C@@H](CNC(C)=O)C(=O)NCC(N)=O)NC(=O)[C@H](CC(N)=O)NC(=O)[C@H](CCC(N)=O)NC1=O` [Compound 12], which “SIF stability [fold OT]” value is on record?
Answer: >100 fold OT

Question: For `CC[C@H](C)[C@@H]1NC(=O)[C@H](Cc2ccc(OC)cc2)NC(=O)CCCSC[C@@H](C(=O)N2CCC[C@H]2C(=O)N[C@@H](CNC(=O)C(C)(C)C)C(=O)NCC(N)=O)NC(=O)[C@H](CC(N)=O)NC(=O)[C@H](CCC(N)=O)NC1=O` [Compound 13] (Y(Me)IQNCP[Dap](Piv)G-NH2; linker N-5 via X1), which “SIF stability [fold OT]” value is on record?
Answer: > 100 fold OT

Question: Which “SIF stability [fold OT]” value does the source give for `COc1ccc(C[C@@H]2NC(=O)CCCSC[C@@H](C(=O)N3CCC[C@H]3C(=O)N[C@@H](CNC(C)=O)C(=O)NCC(N)=O)NC(=O)[C@H](CC(N)=O)NC(=O)[C@H](CCC(N)=O)NC(=O)[C@H](C3CCCC3)NC2=O)cc1` [Compound 14] (Y(Me)[Gly(cPent)]QNCP[Dap](Ac)G-NH2; linker N-5 via X1) here?
Answer: >100 fold OT

Question: For `CC(=O)NC[C@H](NC(=O)[C@@H]1CCCN1C(=O)[C@@H]1CSCCCC(=O)N[C@@H](Cc2ccc(O)cc2)C(=O)N[C@@](C)(C(C)C)C(=O)N[C@@H](CCC(N)=O)C(=O)N[C@@H](CC(N)=O)C(=O)N1)C(=O)NCC(N)=O` [Compound 15] (Y[αMeV]QNCP[Dap](Ac)G-NH2; linker N-5 via X1), which “SIF stability [fold OT]” value is on record?
Answer: >100 fold OT

Question: With `CC[C@H](C)[C@@H]1NC(=O)[C@](C)(Cc2ccc(O)cc2)NC(=O)CCCSC[C@@H](C(=O)N2CCC[C@H]2C(=O)N[C@@H](CCCCNC(C)=O)C(=O)NCC(N)=O)NC(=O)[C@H](CC(N)=O)NC(=O)[C@H](CCC(N)=O)NC1=O` [Compound 16] ([αMeY]IQNCPK(Ac)G-NH2; linker N-5 via X1) as the molecule, how does the “SIF stability [fold OT]” value read?
Answer: >100 fold OT

Question: With `CC[C@H](C)[C@@H]1NC(=O)[C@](C)(Cc2ccc(O)cc2)NC(=O)CCCSC[C@@H](C(=O)N2CSC[C@H]2C(=O)N[C@@H](CCCCNC(C)=O)C(=O)NCC(N)=O)NC(=O)[C@H](CC(N)=O)NC(=O)[C@H](CCC(N)=O)NC1=O` [Compound 17] ([αMeY]IQNC[Thz]K(Ac)G-NH2; linker N-5 via X1) as the molecule, how does the “SIF stability [fold OT]” value read?
Answer: >100 fold OT

Question: With `CC(=O)NCCCC[C@H](NC(=O)[C@@H]1CSCN1C(=O)[C@@H]1CSCCCC(=O)N[C@@](C)(Cc2ccc(O)cc2)C(=O)N[C@@H](C2CCCC2)C(=O)N[C@@H](CCC(N)=O)C(=O)N[C@@H](CC(N)=O)C(=O)N1)C(=O)NCC(N)=O` [Compound 18] ([αMeY][Gly(cPent)]QNC[Thz]K(Ac)G-NH2; linker N-5 via X1) as the molecule, how does the “SIF stability [fold OT]” value read?
Answer: >100 fold OT

Question: For `CC(=O)NCCCC[C@H](NC(=O)[C@@H]1CCCN1C(=O)[C@@H]1CSCCCC(=O)N[C@@H](Cc2ccc(O)cc2)C(=O)N[C@@](C)(C(C)C)C(=O)N[C@@H](CCC(N)=O)C(=O)N[C@@H](CC(N)=O)C(=O)N1)C(=O)NCC(N)=O` [Compound 19] (Y[αMeV]QNCPK(Ac)G-NH2; linker N-5 via X1), which “SIF stability [fold OT]” value is on record?
Answer: >100 fold OT

Question: Which “SIF stability [fold OT]” value does the source give for `CC(=O)NCCCC[C@H](NC(=O)[C@@H]1CSCN1C(=O)[C@@H]1CSCCCC(=O)N[C@@H](Cc2ccc(O)cc2)C(=O)N[C@@](C)(C(C)C)C(=O)N[C@@H](CCC(N)=O)C(=O)N[C@@H](CC(N)=O)C(=O)N1)C(=O)NCC(N)=O` [Compound 20] (Y[αMeV]QNC[Thz]K(Ac)G-NH2; linker N-5 via X1) here?
Answer: > 100 fold OT

Question: Which “SIF stability [fold OT]” value does the source give for `COc1ccc(C[C@@H]2NC(=O)CCCSC[C@@H](C(=O)N3CCC[C@H]3C(=O)N[C@@H](CCCCNC(C)=O)C(=O)NCC(N)=O)NC(=O)[C@H](CC(N)=O)NC(=O)[C@H](CCC(N)=O)NC(=O)[C@H](C3CCCC3)NC2=O)cc1` [Compound 21] (Y(Me)[Gly(cPent)]QNCPK(Ac)G-NH2; linker N-5 via X1) here?
Answer: >100 fold OT

Question: Which “SIF stability [fold OT]” value does the source give for `CC[C@H](C)[C@@H]1NC(=O)[C@H](Cc2ccc(OC)cc2)NC(=O)CCCSC[C@@H](C(=O)N2CSC[C@H]2C(=O)N[C@@H](CCCCNC(C)=O)C(=O)NCC(N)=O)NC(=O)[C@H](CC(N)=O)NC(=O)[C@H](CCC(N)=O)NC1=O` [Compound 22] (Y(Me)IQNC[Thz]K(Ac)G-NH2; linker N-5 via X1) here?
Answer: >100 fold OT

Question: Which “SIF stability [fold OT]” value does the source give for `COc1ccc(C[C@@H]2NC(=O)CCCSC[C@@H](C(=O)N3CSC[C@H]3C(=O)N[C@@H](CCCCNC(C)=O)C(=O)NCC(N)=O)NC(=O)[C@H](CC(N)=O)NC(=O)[C@H](CCC(N)=O)NC(=O)[C@H](C3CCCC3)NC2=O)cc1` [Compound 23] (Y(Me)[Gly(cPent)]QNC[Thz]K(Ac)G-NH2; linker N-5 via X1) here?
Answer: >100 fold OT
